Assay results reported in patent publication US10307401B2, “Compositions and methods for treatment of prostate cancer” (priority 2016, dated 2019).

Key:
[1] = Plasma concentration of ARE-1 in LREX′ tumor bearing SCID mice; format: in vivo; settings: 2.5 mg/kg, terminal blood samples, linear trapezoidal method
Experimental: (§1) Animal experiments were performed at Caltech under IACUC approval. VCaP and LREX′ cells were engrafted as 1:1 mixtures of 3×10^6 cells in Matrigel (BD Biosciences) into flanks of intact and castrated male SCID mice (Charles River), respectively. LREX′ engrafted mice received 10 mg/kg enz (oral gavage) daily. Once tumors were 100 mm^3 (0.5*l*w*w), ARE-1 was administered subcutaneously to opposing flanks in 20% DMSO:saline. For circulation studies, four C57BL6/J animals were injected subcutaneously with ARE-1 at 30 mg/kg and blood collected retroorbitally. Plasma concentrations of ARE-1 were analyzed by HPLC, area under the curve (AUC) approximated by the linear trapezoidal method, as described (12).
(§2) Cell culture experiments represent ≥3 independent biological replicates. Sequencing analyses were duplicates for cell culture and quadruplicates for tumor samples. For xenografts, animals were randomly assigned to groups. For circulation experiments, concentrations of ARE-1 were duplicate measurements. Measurements in cell culture, animal, and immunohistochemistry experiments were assessed by Student's t-test.

[2] = system: LREX′ cells; assay: Cytotoxicity / proliferation in LREX′ cells (WST-1); format: cell-based; settings: with or without 1 nM DHT, 100 nM dex, or both
Excerpt: (§3) The LREX′ and LNCaP/AR cell lines were gifts from Charles Sawyers (Memorial Sloan Kettering) and received in 2014 and 2007, respectively. The VCaP cell line was a gift from Kenneth Pienta (University of Michigan Medical School) and received in 2012. Cells were maintained as previously described (5, 10-13), and were used within 10 passages from thawing. Cells were validated to parental cell lines by STR profile at IDEXXX Bioresearch following experimentation and confirmed to be Mycoplasma free. WST-1 assay (Roche) was used to measure cytotoxicity. The CellTiter-Glo assay was also used in some experiments and is described when used. Long-term toxicity in VCaP cells was assayed by cell counting.

[3] = system: KLK3 mRNA in LNCaP/AR cells; assay: Gene expression analysis (qRT-PCR) in LNCaP/AR cells; format: cell-based; settings: 10 μM; for agonist activity (KLK3 mRNA): androgen-depleted conditions
Experimental: (§4) LNCaP/AR and LREX′ cells were cultured for 72 hours after plating in phenol-red free RPMI 1640 (10% CT-FBS) in six well plates at 40,000 and 50,000 cells/mL, respectively. LNCaP/AR cells were treated with 10 μM ARE-1, bicalutamide (bic), or enzalutamide (enz, Aurum Pharmatech) for an additional 48, 2, and 2 hours, respectively, prior to treatment with 1 nM DHT or ethanol for 16 hours. LREX′ cells were treated with 10 μM ARE-1 for 16 hours prior to induction with 1 nM DHT or 100 nM dexamethasone (dex) for 8 hours. RNA extraction (RNEasy columns, Qiagen), cDNA generation (Transcriptor First Strand cDNA kit, Roche), and qRT-PCR (SYBR Green Master Mix, Applied Biosystems, ABI7300 instrument) were as described (10-12). Expression was normalized to β-glucuronidase.

[4] = system: hormone sensitive LNCaP xenografts; settings: previously shown, cited from earlier work
[5] = system: KLK3 and HOMER2 expression in LREX′ cells; assay: Gene expression analysis (qRT-PCR) of genes co-regulated by AR and GR in LREX′ cells; format: cell-based
Experimental: as §4

[6] = system: VCaP cells; assay: Cytotoxicity and long-term viability (cell counting) in VCaP cells; format: cell-based
Excerpt: as §3

[7] = system: VCaP xenografts; assay: VCaP xenografts in intact male SCID mice; format: in vivo
Experimental: as §1

[8] = system: LNCaP cells; assay: RNAseq GSEA (Hallmark pathways) in LNCaP cells; format: cell-based, human; settings: LNCaP ARE-1/NT
[9] = system: LREX′ tumors; assay: RNAseq GSEA of LREX′ tumor expression profiles; format: in vivo, mice; settings: gene ontology
Experimental: (§5) LREX′ cells were plated at 50,000 cells/mL in 10 cm^2 dishes, treated with or without 10 μM of ARE-1 in fresh media, incubated 16 hours, and induced with 1 nM DHT for 8 hours. Tumor samples were homogenized mechanically. Total RNA was triazol extracted, sequenced (Illumina HiSeq2000), mapped against the human genome (hg19) with Tophat2 using Ensembl GRCh37 gene annotations. Human and mouse reads from tumor samples were parsed with BBSplit and unique reads were mapped. Htseq-count was used for exon alignment and DESeq2 for differential expression. Gene set enrichment analysis (GSEA) was performed on genes with padj<0.05 and fold change≥1.6 for cell samples and padj<0.05 for tumor samples.
as §1

[10] = system: LREX′ cells; assay: RNAseq GSEA (Hallmark pathways) in LREX′ cells; format: cell-based, human
Experimental: as §5

[11] = system: nascent RNA in LREX′ cells; assay: Nascent RNA measurement (5-EU incorporation) in LREX′ cells; format: cell-based
Experimental: LREX′ cells were plated at 100,000 cells/mL in 96 well plates in RPMI 1640 (20% FBS and 1 μM enz), adhered for 24 hours, dosed with ARE-1, incubated for 48 hours. The Click-iT® RNA Alexa Fluor® 488 HCS kit was used for dye conjugation and incorporation of 5-ethynyl uridine (5-EU) was measured on a Flexstation 3 plate reader.
LREX′ cells were plated at 100,000 cells/mL in 175 cm^2 flasks, adhered 24 hours, incubated with 10 μM ARE-1 24, 48, and 72 hours, then with 300 μM 5-EU in fresh media. Cells were detached by Accumax or Accutase, and Alexa Fluor® 488 azide dye was conjugated. Cells were passed through 35 μm mesh prior to flow, sorted on a FACSCalibur instrument (Beckman-Dickinson), analyzed using FlowJo.

[12] = system: LNCaP/AR cells; assay: Cytotoxicity / proliferation in LNCaP/AR cells (WST-1, CellTiter-Glo); format: cell-based; settings: 72 hours, compared with bicalutamide
Excerpt: as §3

[13] = Circulation study of ARE-1 in C57BL6/J mice; format: in vivo
Experimental: as §1, §2

[14] = system: VCaP xenografts; settings: 10 mg/kg enzalutamide treatment; cited from earlier work

Compound: CC(=O)N[C@H](CCNC(=O)c1cc(NC(=O)c2cc(NC(=O)c3cc(NC(=O)c4nccn4C)cn3C)cn2C)cn1C)C(=O)Nc1cn(C)c(C(=O)Nc2cc(C(=O)Nc3cc(C(=O)Nc4cc(C(=O)NCCCN(C)CCCNC(=O)c5cccc(C(=O)O)c5)n(C)c4)n(C)c3)n(C)c2)n1 [ARE-1]
- AUC (plasma) [1]: 25.9 µg·h/mL
- proliferation of LREX′ cells [2]: reduced proliferation
- agonist activity (KLK3 mRNA) [3]: no agonist activity
- baseline expression of KLK3 ([3]; charcoal stripped media): reduced baseline expression of KLK3
- host toxicity ([4]; LNCaP xenografts): minimal host toxicity
- efficacy against LNCaP xenografts [4]: effective against hormone sensitive LNCaP xenografts
- reduction of dex induced transcription ([5]; 100 nM dex, ARE-1 compared with enzalutamide): the opposite was observed with dex induction
- KLK3 and HOMER2 expression ([5]; 10 μM ARE-1): represses KLK3 and HOMER2 expression
- long-term cell viability in VCaP cells ([6]; long-term incubation, cell counting, compared with enzalutamide): more potent than enzalutamide and insensitive to GR activation
- proliferation of VCaP cells ([6]; with or without 1 nM DHT, 100 nM dex, or both): reduced proliferation
- toxicity (animal weights) ([7]; VCaP tumor bearing animals treated with ARE-1): without significant toxicity
- reduction of tumor growth compared to vehicle ([7]; VCaP xenografts, 5 mg/kg ARE-1 subcutaneously three times per week): 70%
- NES HALLMARK APOPTOSIS [8]: 2.323
- NES HALLMARK INTERFERON GAMMA RESPONSE [8]: 3.06
- NES HALLMARK P53 PATHWAY [8]: 3.749
- NES HALLMARK TNFA SIGNALING VIA NFKB [8]: 3.248
- Nes ADENYL NUCLEOTIDE BINDING [9]: −4.22
- Nes CELL PROJECTION ORGANIZATION [9]: −3.813
- Nes CELLULAR AMIDE METABOLIC PROCESS [9]: 4.725
- Nes CHROMATIN BINDING [9]: −3.786
- Nes DOUBLE STRANDED DNA BINDING [9]: −4.074
- Nes MACROMOLECULAR COMPLEX BINDING [9]: −3.726
- Nes MITOCHONDRIAL ENVELOPE [9]: 5.17
- Nes MITOCHONDRIAL PART [9]: 5.946
- Nes MITOCHONDRION [9]: 6.585
- Nes MITOCHONDRION ORGANIZATION [9]: 4.686
- Nes NUCLEIC ACID BINDING TRANSCRIPTION FACTOR ACTIVITY [9]: −5.598
- Nes ORGANELLE INNER MEMBRANE [9]: 4.922
- Nes ORGANONITROGEN COMPOUND BIOSYNTHETIC PROCESS [9]: 4.815
- Nes ORGANONITROGEN COMPOUND METABOLIC PROCESS [9]: 5.958
- Nes REGULATION OF TRANSCRIPTION FROM RNA POLYMERASE II PROMOTER [9]: −4.438
- Nes REGULATORY REGION NUCLEIC ACID BINDING [9]: −4.775
- Nes RIBOSOME [9]: 4.779
- Nes SEQUENCE SPECIFIC DNA BINDING [9]: −4.99
- Nes STRUCTURAL CONSTITUENT OF RIBOSOME [9]: 4.741
- Nes ZINC ION BINDING [9]: −3.923
- NES HALLMARK APICAL JUNCTION ([10]; LREX′ DHT + ARE-1/DHT): −2.198
- NES HALLMARK DNA REPAIR ([10]; LREX′ DHT + ARE-1/DHT): 2.055
- NES HALLMARK INTERFERON GAMMA RESPONSE ([10]; LREX′ DHT + ARE-1/DHT): 2.028
- NES HALLMARK MITOTIC SPINDLE ([10]; LREX′ DHT + ARE-1/DHT): −2.302
- NES HALLMARK MYC TARGETS V1 ([10]; LREX′ DHT + ARE-1/DHT): 2.006
- NES HALLMARK OXIDATIVE PHOSPHORYLATION ([10]; LREX′ DHT + ARE-1/DHT): 2.738
- NES HALLMARK PROTEIN SECRETION ([10]; LREX′ DHT + ARE-1/DHT): −2.402
- NES HALLMARK UV RESPONSE UP ([10]; LREX′ DHT + ARE-1/DHT): 2.173
- nascent RNA (5-EU incorporation) [11]: reduced nascent RNA in LREX′ cells
- proliferation of LNCaP/AR cells [12]: reduced proliferation of LNCaP/AR cells more than bicalutamide
- AUC (plasma) ([13]; 30 mg/kg subcutaneously, C57BL6/J mice, linear trapezoidal method): 189.9 µg·h/mL
- time to recovery from weight loss ([13]; 30 mg/kg, mice): ≤ 5 days
- visible signs of distress ([13]; 30 mg/kg, mice): without visible signs of distress
- weight loss ([13]; 30 mg/kg, mice): 6%

Compound: C[C@]12CCC(=O)C[C@@H]1CC[C@@H]1[C@@H]2CC[C@]2(C)[C@@H](O)CC[C@@H]12 [DHT, dihydrotestosterone, reference compound]
- NES HALLMARK ANDROGEN RESPONSE ([10]; LREX′ DHT/NT): 5.031
- NES HALLMARK MYC TARGETS V1 ([10]; LREX′ DHT/NT): −1.861
- NES HALLMARK MYC TARGETS V2 ([10]; LREX′ DHT/NT): −1.81
- NES HALLMARK OXIDATIVE PHOSPHORYLATION ([10]; LREX′ DHT/NT): −2.126
- NES HALLMARK PROTEIN SECRETION ([10]; LREX′ DHT/NT): 2.849
- NES HALLMARK TNFA SIGNALING VIA NFKB ([10]; LREX′ DHT/NT): 2.751
- NES HALLMARK UV RESPONSE DOWN ([10]; LREX′ DHT/NT): 2.496

Compound: CNC(=O)c1ccc(N2C(=S)N(c3ccc(C#N)c(C(F)(F)F)c3)C(=O)C2(C)C)cc1F [enzalutamide, reference compound]
- agonist activity (KLK3 mRNA) [3]: no agonist activity
- reduction of DHT induced transcription ([5]; 1 nM DHT, enzalutamide compared with ARE-1): more potent than ARE-1 in reducing DHT induced transcription
- response of VCaP xenografts [14]: modest response
